Laboratory results published in patent publication US10844091B2 (priority 2017, dated 2020).
Marks after values point to notes of the source that are not given here. Non-standard residues stand in square brackets, D forms with d.

Experiments:
[1] = tested on: intact animals and animals with reserpine-induced depression; test: Open Field Test, intact animals and animals with reserpine-induced depression; type: in vivo, rat; conditions: for Emotional reactions and concomitant vegetative state (total number of grooming acts, fecal boluses, and urinations) / Orientation and exploratory activity (number of explored openings and upright positions) / Sum of all results / Locomotor activity (number of squares): imipramine 15 mg/kg i.p., tetrapeptide (LYS) 0.02 mg/kg i.n.
Experimental: The experiment was conducted on 16 white random-bred adult male rats weighing:
180-220 g. The antidepressant activity of tetrapeptide (LYS), a neuroprotector, at a 0.02 mg/kg dose intranasally (i.n.) was evaluated. […] The experiment was conducted in two stages. […] 25-30 min. prior to the start of the experiment, the animals were administered their respective drugs. The animals in the control group were administered 0.9% NaCl solution i.p. and i.n. in the volume equal to the volume of the medications. After that, the animals of all groups were placed in the open field (OF) for 3 min., and their locomotor (number of crossed squares), orientation, and exploratory (number of upright positions and explored openings) activity as well as their emotional reactions (fecal boluses, urination, grooming) were evaluated. The indicators of depression in the animals (latent immobilization period, the number of such instances, and their total duration) were evaluated in the Popsolt swim test (PST) over 6 min. In the next 2 days, all the medications were administered at the same dose once a day; the last administration—30 min before the depressogenic sympatholytics of reserpine. Reserpine was administered on the 3rd day (2nd stage of the experiment) at a 4 mg/kg dose i.p. (as a suspension stabilized with Tween-80). Animals in all 3 groups were evaluated 6-7 hr. later in the OF and PST.
Test results were statistically processed. When the data distribution was normal, the parametric Student's t-distribution test was applied, when it was absent, the non-parametric MannWhitney U-test was used. When processing the results in an alternative form (presence/absence of the indicator), Fisher's angular transformation φ was applied. Wilcoxon paired t-criterium test was used for the intra-group statistical evaluation of the changed in the animal test results prior and post simulated depression. The results were considered to be statistically significant when p<0.05.

[2] = tested on: rat models with Alzheimer's disease; test: Conditioned passive avoidance reflex (CPAR) test, scopolamine-induced Alzheimer's disease model; type: in vivo; conditions: for antiamnesic action (AA) in the CPAR test: Butler's formula, 0.1 mg/kg; for number of animals who reached the CPAR learning criterium: % of total trained animals, criterium at least 180 sec in light area
Experimental: White random-bred adult male rats weighing 200-240 g were used. Groups of 7 animals per group were formed. 1st group—control, 2nd—pathology, 3rd—comparator drug, 4th-6th—neuropeptides.
Scopolamine was administered i.p. to the animals in all groups except for the control at a 1 mg/kg dose daily, once a day for 27 days. From the 28th day on, the animals in groups 2 and 3 were administered the comparator drug and the claimed preparation respectively over the course of 10 days. The drugs were administered daily, once a day.
The tetrapeptides were administered i.n at a 0.1 mg/kg dose. The animals in the pathology group received 0.9% sodium chloride solution i.n. and i.p. as a placebo.
The OF and EE tests were conducted on the 1st day, PST—on the 2nd day, CPAR—on the 1st and 10th day post treatment with the preparations. […] The antiamnesic action (AA) in the CPAR test was calculated using Butler's formula [K. S. Radionova. […] After that, the animals were removed from the experiment by administering a narcotic, followed by decapitation. The brain was extracted and weighed, and the brain weight coefficient (BWC) was calculated. Immediately after extraction, the brain was frozen in liquid nitrogen and used in subsequent biochemical and histochemical studies. Glucose levels in whole arterial (common carotid artery) and venous (venous cerebral sinus) blood were determined by the glucose oxidase test, the difference in the arterial-venous glucose content was calculated (glucose consumption marker). The levels of average weight molecules—the toxic products of cell biodegradation damaged during the disease (nucleoside derivatives, peptoids, glucuronic acid salts, etc.) in the blood serum (AWM) were calculated [A. N. Kovalevsky. Notes on the screening method of determination average weight molecules/A. N. Kovalevsky, O. Ye. Nifantiev//Lab. Science. […] 35-39].

[3] = R - reserpine-induced depression

With “acetyl-D-Lys-Lys-Arg-Arg-amide (Ac-[dK]KRR-NH2; SMILES CC(=O)N[C@H](CCCCN)C(=O)N[C@@H](CCCCN)C(=O)N[C@@H](CCCNC(=N)N)C(=O)N[C@@H](CCCNC(=N)N)C(N)=O) [tetrapeptide (LYS), peptide acetyl-X-ARG-ARG-amide, X = D- and L-amino acid residues of lysine]” the “Emotional reactions and concomitant vegetative state (total number of grooming acts, fecal boluses, and urinations)” value ([1]; I - intact animals) was 1.8 ± 0.77^, the “Orientation and exploratory activity (number of explored openings and upright positions)” value ([1]; I - intact animals) was 5.8 ± 0.77 and the “Sum of all results” value ([1]; I - intact animals) was 11.6 ± 2.49*^. The “Locomotor activity (number of squares)” value ([1]; I - intact animals, 3 min) was 4.0 ± 1.34*^, the “Locomotor activity (number of squares)” value ([1]; R - reserpine-induced depression (4 mg/kg i.p.)) was 3.4 ± 2.4 and the “Emotional reactions and concomitant vegetative state (total number of grooming acts, fecal boluses, and urinations)” value [1, 3] was 0.2 ± 0.2. For the same substance, the “Orientation and exploratory activity (number of explored openings and upright positions)” value [1, 3] was 4.6 ± 2.4, the “Sum of all results” value [1, 3] was 8.2 ± 4.98 and the “Emotional reactions and concomitant vegetative state, % change reserpine-induced depression vs. intact animals” value ([1]; R vs I) was “(−88.9%) ®”. For the same substance, the “Locomotor activity, % change reserpine-induced depression vs. intact animals” value ([1]; R vs I) was “(−15.0%)”, the “Orientation and exploratory activity, % change reserpine-induced depression vs. intact animals” value ([1]; R vs I) was “(−20.69%)” and the “Sum of all results, % change reserpine-induced depression vs. intact animals” value ([1]; R vs I) was “(−29.3%)”. The “decrease of emotional reaction level compared to intact animals” value ([1]; reserpine-induced depression) was 9 times, the “reduction of locomotor activity (crossed squares) compared to intact animals” value ([1]; reserpine-induced depression) was 15% and the “reduction of orientation and exploratory activity compared to intact animals” value ([1]; reserpine-induced depression) was 20.7%. The “reduction of the sum of all types of activities compared to intact animals” value ([1]; reserpine-induced depression) was 29.3%, the “antiamnesic action (AA) in the CPAR test” value ([2]; 10th day) was 81.5% and the “increase of latent period compared to the pathology group” value ([2]; 24 hrs. post formation of CPAR) was 79.5%. The “Latent period of entry into the dark area of the CPAR device, In 24 hrs.” value ([2]; In 24 hrs., scopolamine + donepezil 1 mg/kg or tetrapeptide (LYS) 0.1 mg/kg i.n.) was 126.14 ± 23.62 s, the “Latent period of entry into the dark area of the CPAR device, In 10 days” value ([2]; In 10 days, scopolamine + donepezil 1 mg/kg or tetrapeptide (LYS) 0.1 mg/kg i.n.) was 89.71 ± 19.09^ sec and the “Latent period of entry into the dark area of the CPAR device, Initial” value ([2]; Initial, scopolamine + donepezil 1 mg/kg or tetrapeptide (LYS) 0.1 mg/kg i.n.) was 20.14 ± 3.73 s. The “number of animals who reached the CPAR learning criterium” value ([2]; first day) was 42.9%, the “antiamnesic action (AA) in the CPAR test” value ([2]; first day) was 56.5% and the “increase of latent period compared to the pathology group” value ([2]; post 10 days, p<0.05) was 130.9%. The “number of animals who reached the CPAR learning criterium” value ([2]; tenth day) was 14.3%.
